BindingDB's records for doi:10.1021/jm010384j (Wake Forest University School of Medicine, 2001)

Biological target: Sigma non-opioid intracellular receptor 1 (Cavia porcellus) (UniProt Q60492)
Experiment: Binding affinity for sigma 1 opioid receptor, measured on guinea pig brain membranes using [3H]- (+)-pentazocine as radioligand

Chain of Sigma non-opioid intracellular receptor 1 (Cavia porcellus) (Q60492 whole entry, looked up): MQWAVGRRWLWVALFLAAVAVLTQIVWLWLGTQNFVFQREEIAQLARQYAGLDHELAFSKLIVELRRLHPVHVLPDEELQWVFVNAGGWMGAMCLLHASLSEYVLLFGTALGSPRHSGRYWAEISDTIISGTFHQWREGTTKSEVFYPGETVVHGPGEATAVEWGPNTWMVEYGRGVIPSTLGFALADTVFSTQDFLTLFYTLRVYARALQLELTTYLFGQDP

SMILES	Ki
O=C(Nc1cccc2ccccc12)NC1CCN(Cc2ccccc2)CC1 [1-(1-Benzyl-piperidin-4-yl)-3-naphthalen-1-yl-urea]	22.7 nM
O=C(Cc1ccccc1F)NC1CCN(Cc2cccc(I)c2)CC1 [2-(2-Fluoro-phenyl)-N-[1-(3-iodo-benzyl)-piperidin-4-yl]-acetamide]	15.4 nM
O=C(Cc1ccccc1F)NC1CCN(Cc2ccc(I)cc2)CC1 [2-(2-Fluoro-phenyl)-N-[1-(4-iodo-benzyl)-piperidin-4-yl]-acetamide]	4.2 nM
O=C(Cc1cccc(Br)c1)NC1CCN(Cc2cccc(I)c2)CC1 [2-(3-Bromo-phenyl)-N-[1-(3-iodo-benzyl)-piperidin-4-yl]-acetamide]	3.49 nM
O=C(Cc1cccc(Br)c1)NC1CCN(Cc2ccc(F)cc2)CC1 [2-(3-Bromo-phenyl)-N-[1-(4-fluoro-benzyl)-piperidin-4-yl]-acetamide]	1.21 nM
O=C(Cc1cccc(Br)c1)NC1CCN(Cc2ccc(I)cc2)CC1 [2-(3-Bromo-phenyl)-N-[1-(4-iodo-benzyl)-piperidin-4-yl]-acetamide]	1.78 nM
O=C(Cc1cccc(Cl)c1)NC1CCN(Cc2cccc(I)c2)CC1 [2-(3-Chloro-phenyl)-N-[1-(3-iodo-benzyl)-piperidin-4-yl]-acetamide]	2.31 nM
O=C(Cc1cccc(Cl)c1)NC1CCN(Cc2ccc(F)cc2)CC1 [2-(3-Chloro-phenyl)-N-[1-(4-fluoro-benzyl)-piperidin-4-yl]-acetamide]	1.15 nM
O=C(Cc1cccc(Cl)c1)NC1CCN(Cc2ccc(I)cc2)CC1 [2-(3-Chloro-phenyl)-N-[1-(4-iodo-benzyl)-piperidin-4-yl]-acetamide]	3.21 nM
O=C(Cc1cccc(F)c1)NC1CCN(Cc2cccc(I)c2)CC1 [2-(3-Fluoro-phenyl)-N-[1-(3-iodo-benzyl)-piperidin-4-yl]-acetamide]	4.29 nM
O=C(Cc1cccc(F)c1)NC1CCN(Cc2ccc(I)cc2)CC1 [2-(3-Fluoro-phenyl)-N-[1-(4-iodo-benzyl)-piperidin-4-yl]-acetamide]	2.25 nM
O=C(Cc1ccccc1)NC1CCN(Cc2ccccc2C(F)(F)F)CC1 [2-Phenyl-N-[1-(2-trifluoromethyl-benzyl)-piperidin-4-yl]-acetamide]	> 1000 nM
O=C(Cc1ccccc1)NC1CCN(Cc2cccc(C(F)(F)F)c2)CC1 [2-Phenyl-N-[1-(3-trifluoromethyl-benzyl)-piperidin-4-yl]-acetamide]	141 nM
O=C(Cc1ccccc1)NC1CCN(Cc2ccc(C(F)(F)F)cc2)CC1 [2-Phenyl-N-[1-(4-trifluoromethyl-benzyl)-piperidin-4-yl]-acetamide]	87 nM
O=C(Cc1cnc[nH]1)NC1CCN(Cc2ccccc2)CC1 [N-(1-Benzyl-piperidin-4-yl)-2-(1H-imidazol-4-yl)-acetamide]	248 nM
O=C(Cc1c[nH]c2ccccc12)NC1CCN(Cc2ccccc2)CC1 [N-(1-Benzyl-piperidin-4-yl)-2-(1H-indol-3-yl)-acetamide]	10.9 nM
O=C(Cc1ccc(I)cc1)NC1CCN(Cc2ccccc2)CC1 [N-(1-Benzyl-piperidin-4-yl)-2-(4-iodo-phenyl)-acetamide]	13.8 nM
O=C(Cc1c[nH]c2ccc(Br)cc12)NC1CCN(Cc2ccccc2)CC1 [N-(1-Benzyl-piperidin-4-yl)-2-(5-bromo-1H-indol-3-yl)-acetamide]	51.9 nM
COc1ccc2[nH]cc(CC(=O)NC3CCN(Cc4ccccc4)CC3)c2c1 [N-(1-Benzyl-piperidin-4-yl)-2-(5-methoxy-1H-indol-3-yl)-acetamide]	125 nM
COc1ccc2c(c1)C(CC(=O)NC1CCN(Cc3ccccc3)CC1)CC2=O (configuration not stated) [N-(1-Benzyl-piperidin-4-yl)-2-(6-methoxy-3-oxo-indan-1-yl)-acetamide]	299 nM
O=C1C=CC2C(CC(=O)NC3CCN(Cc4ccccc4)CC3)=CC(=O)OC2C1 (configuration not stated) [N-(1-Benzyl-piperidin-4-yl)-2-(7-hydroxy-2-oxo-4a,8a-dihydro-2H-chromen-4-yl)-acetamide]	> 1000 nM

SMILES	Ki
O=C(CSc1ncccn1)NC1CCN(Cc2ccccc2)CC1 [N-(1-Benzyl-piperidin-4-yl)-2-(pyrimidin-2-ylsulfanyl)-acetamide]	150 nM
O=C(Cc1cccc2ccccc12)NC1CCN(Cc2ccccc2)CC1 [N-(1-Benzyl-piperidin-4-yl)-2-naphthalen-1-yl-acetamide]	4.64 nM
O=C(Cc1ccc2ccccc2c1)NC1CCN(Cc2ccccc2)CC1 [N-(1-Benzyl-piperidin-4-yl)-2-naphthalen-2-yl-acetamide]	61.8 nM
O=C(Cc1ccccn1)NC1CCN(Cc2ccccc2)CC1 [N-(1-Benzyl-piperidin-4-yl)-2-pyridin-2-yl-acetamide]	236 nM
O=C(Cc1cccnc1)NC1CCN(Cc2ccccc2)CC1 [N-(1-Benzyl-piperidin-4-yl)-2-pyridin-3-yl-acetamide]	269 nM
O=C(Cc1ccncc1)NC1CCN(Cc2ccccc2)CC1 [N-(1-Benzyl-piperidin-4-yl)-2-pyridin-4-yl-acetamide]	298 nM
O=C(Cc1cccs1)NC1CCN(Cc2ccccc2)CC1 [N-(1-Benzyl-piperidin-4-yl)-2-thiophen-2-yl-acetamide]	3.93 nM
O=C(Cc1ccsc1)NC1CCN(Cc2ccccc2)CC1 [N-(1-Benzyl-piperidin-4-yl)-2-thiophen-3-yl-acetamide]	7.2 nM
O=C(Cc1ccccc1)NC1CCN(Cc2ccc3ccccc3c2)CC1 [N-(1-Naphthalen-2-ylmethyl-piperidin-4-yl)-2-phenyl-acetamide]	23.9 nM
O=C(Cc1ccccc1)NC1CCN(CCc2ccccc2)CC1 [N-(1-Phenethyl-piperidin-4-yl)-2-phenyl-acetamide]	31.2 nM
O=C(Cc1ccccc1)NC1CCN(Cc2ccccc2F)CC1 [N-[1-(2-Fluoro-benzyl)-piperidin-4-yl]-2-phenyl-acetamide]	10.2 nM
O=C(Cc1ccccc1)NC1CCN(Cc2ccccc2I)CC1 [N-[1-(2-Iodo-benzyl)-piperidin-4-yl]-2-phenyl-acetamide]	347 nM
O=C(Cc1ccccc1)NC1CCN(Cc2ccc(Cl)c(Cl)c2)CC1 [N-[1-(3,4-Dichloro-benzyl)-piperidin-4-yl]-2-phenyl-acetamide]	7.24 nM
O=C(Cc1ccccc1)NC1CCN(Cc2ccc(F)c(F)c2)CC1 [N-[1-(3,4-Difluoro-benzyl)-piperidin-4-yl]-2-phenyl-acetamide]	6.3 nM
O=C(Cc1ccccc1)NC1CCN(Cc2cccc(F)c2)CC1 [N-[1-(3-Fluoro-benzyl)-piperidin-4-yl]-2-phenyl-acetamide]	8.22 nM
O=C(Cc1ccccc1)NC1CCN(Cc2cccc(I)c2)CC1 [N-[1-(3-Iodo-benzyl)-piperidin-4-yl]-2-phenyl-acetamide]	6.75 nM
O=C(Cc1ccccc1F)NC1CCN(Cc2ccc(F)cc2)CC1 [N-[1-(4-Fluoro-benzyl)-piperidin-4-yl]-2-(2-fluoro-phenyl)-acetamide]	3.15 nM
O=C(Cc1cccc(F)c1)NC1CCN(Cc2ccc(F)cc2)CC1 [N-[1-(4-Fluoro-benzyl)-piperidin-4-yl]-2-(3-fluoro-phenyl)-acetamide]	5.51 nM
O=C(Cc1ccccc1)NC1CCN(Cc2ccc(F)cc2)CC1 [N-[1-(4-Fluoro-benzyl)-piperidin-4-yl]-2-phenyl-acetamide]	6.59 nM
O=C(Cc1ccccc1)NC1CCN(Cc2ccc(I)cc2)CC1 [N-[1-(4-Iodo-benzyl)-piperidin-4-yl]-2-phenyl-acetamide]	9.03 nM
O=C(Cc1ccccc1)NC1CCN(Cc2ccc([N+](=O)[O-])cc2)CC1 [N-[1-(4-Nitro-benzyl)-piperidin-4-yl]-2-phenyl-acetamide]	19.1 nM
